Source: publication PMC6278354, “Investigation of New Orexin 2 Receptor Modulators Using In Silico and In Vitro Methods” (Molecules, 2018)
Read-outs that look alike come from different tables or passages of the source.

Tests used:
[1] = PAMPA assay for prediction of BBB penetration (polar brain lipid); details: for Papp at 30 µM: PAMPA, pH 7.4; for CNS Predicted Availability: class from PAMPA Pe; for BBB permeation via passive diffusion, in words: from PAMPA Pe
[2] = MTT cytotoxicity assay; assay type: cell-based; details: Chinese hamster
Procedure: (§1) Adherent epithelial CHO-K1 cell line (Chinese hamster ovary, ATCC, #CCL-61, Manassas, VA, USA) was grown in Ham’s F12 Nutrient Mixture supplemented with 10% heat-inactivated FBS and antibiotics 1% penicillin (10,000 U/mL)/streptomycin (10,000 µg/mL) at 37 °C, 95% humidity and under 5% CO2.
(§2) The cytotoxic effect of the studied compounds was assessed using standard MTT (3-[4–dimethylthiazol-2-yl]-2,5-diphenyltetrazolium bromide) assay on the CHO-K1 cell line. […] Cells were seeded in 96-well plates and exposed to the tested compounds in the medium (100 µL) for 24 h at 37 °C, 95% humidity, and in an atmosphere of 5% CO2. Subsequently, this medium was replaced by the medium containing MTT (10 µM) and incubated for another 3–4 h. After that, the medium with MTT was removed and formazan crystals were dissolved by the addition of 100 µL DMSO. Viability of the cells was estimated spectrophotometrically by the amount of produced formazan. The absorbance was measured at 570 nm, with 650 nm as a reference wavelength on a Synergy HT reader (Biotek, USA). Results were expressed as IC50 from the control-subtracted triplicates (in comparison with untreated control) using non-linear regression (four parameters) in GraphPad Prism 7.03 (GraphPad Software Inc., CA, USA).

[3] = target: T1, human OX2R (Homo sapiens, UniProt O43614); assay: OX2R calcium assay, antagonist mode against orexin A (Fluo-3, CHO-K1 cells stably expressing human OX2R); assay type: cell-based; details: for IC50: 0.1 μM orexin A as agonist, mean ± SEM, n = 3, read-out: IC50 antagonistic effect in orexin A-OX2R interaction; for antagonistic screening: reduction of orexin A response signal: ligand 10 μM, orexin A 100 nM, data not shown
T1 construct: host or cells: CHO-K1
T1 sequence (O43614 1-444): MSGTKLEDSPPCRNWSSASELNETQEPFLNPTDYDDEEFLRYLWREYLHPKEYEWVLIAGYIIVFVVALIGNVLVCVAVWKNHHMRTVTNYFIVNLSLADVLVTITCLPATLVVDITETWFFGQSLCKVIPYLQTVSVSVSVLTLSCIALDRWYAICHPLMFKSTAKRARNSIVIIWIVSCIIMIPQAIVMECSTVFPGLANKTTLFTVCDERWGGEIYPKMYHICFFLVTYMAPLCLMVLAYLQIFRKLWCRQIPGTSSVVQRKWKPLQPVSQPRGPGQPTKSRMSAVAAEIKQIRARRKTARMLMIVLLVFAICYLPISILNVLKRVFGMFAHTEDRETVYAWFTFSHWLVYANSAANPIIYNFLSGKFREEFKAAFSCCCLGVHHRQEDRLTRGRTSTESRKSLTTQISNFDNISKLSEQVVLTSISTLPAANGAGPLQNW

[4] = in vitro; details: PAMPA, pH 7.4
[5] = target: T1, human OX2R; assay: OX2R calcium assay, agonist mode (Fluo-3, CHO-K1 cells stably expressing human OX2R); assay type: cell-based; details: for agonistic effect in screening: 10 μM ligand; for agonistic effect at higher concentrations: higher concentrations than 10 μM, data not shown
[6] = tested on: CHO-K1 cell line; assay: MTT cytotoxicity assay; assay type: cell-based; details: Chinese hamster, 24 h
Procedure: as §1, §2

[7] = PAMPA, pH 7.4
[8] = CHO-K1 cells, MTT, 24 h exposure, read-out: Cytotoxicity CHO-K1 IC50 ± SEM

Papp at 30 µM [1] | IC50 [3] | SMILES | IC50 at 24 h [2, 8] | CNS Predicted Availability [1] | antagonistic screening: reduction of orexin A response signal [3] | also measured
17.9 ± 2.2 ×10⁻⁶ cm/s | 8.9 ± 0.43 µM | O=C(c1cc(-c2ccco2)nc2ccccc12)N1CCN(C(=O)C2COc3ccccc3O2)CC1 (stereo not shown) [Ligand L3, 4-[4-(2,3-dihydro-1,4-benzodioxine-2-carbonyl)piperazine-1-carbonyl]-2-(furan-2-yl)quinoline] | 279 ± 36.6 µM | CNS + (CNS + (high BBB permeation predicted): Pe (×10^−6 cm s^−1) > 4.0) | significantly reduce the signal of orexin A response | 
17.6 ± 6.4 ×10⁻⁶ cm/s | 12.2 ± 3.1 µM | Cn1c(=O)c2c(-c3ccccc3)n3c(c2n(C)c1=O)C(c1coc2ccccc2c1=O)OCC3 (stereo not shown) [Ligand L6, 3,5-dimethyl-13-(4-oxo-4H-chromen-3-yl)-8-phenyl-12-oxa-3,5,9-triazatricyclo[7.4.0.0^2,7]trideca-1,7-diene-4,6-dione] | > 100 µM | CNS + (CNS + (high BBB permeation predicted): Pe (×10^−6 cm s^−1) > 4.0) | significantly reduce the signal of orexin A response | agonistic effect in screening [5]: subtle agonistic effect; agonistic effect at higher concentrations [5]: neither an agonistic nor dose-response effect
3.37 ± 2.1 ×10⁻⁶ cm/s | 25 ± 2.6 µM | Cc1ccccc1Cn1cc(/C=C2\C(=N)N3N=C(CC(=O)N4CCCC4)SC3=NC2=O)c2ccccc21 [Ligand L7, (6E)-5-imino-6-({1-[(2-methylphenyl)methyl]-1H-indol-3-yl}methylidene)-2-[2-oxo-2-(pyrrolidin-1-yl)ethyl]-5H,6H,7H-[1,3,4]thiadiazolo[3,2-a]pyrimidin-7-one] | 61.8 ± 3.74 µM | CNS +/− (CNS +/− (BBB permeation uncertain): Pe (×10^−6 cm s^−1) from 4.0 to 2.0) | significantly reduce the signal of orexin A response | Pe ± SEM ([1]; PAMPA-BBB, PBS pH 7.4, 30 µM donor, at least three measurements): 2.0–4.0 ×10^−6 cm s^−1; BBB permeation via passive diffusion, in words [1]: uncertain permeation through the BBB
32.3 ± 1.5 ×10⁻⁶ cm/s |  | O=C(Cn1nc(-c2ccc(F)cc2)oc1=O)N1CCCC1c1ccc2c(c1)OCCCO2 (stereo not shown) [Ligand L9, 3-{2-[2-(3,4-dihydro-2H-1,5-benzodioxepin-7-yl)pyrrolidin-1-yl]-2-oxoethyl}-5-(4-fluorophenyl)-2,3-dihydro-1,3,4-oxadiazol-2-one] | 144 ± 11.1 µM | CNS + (CNS + (high BBB permeation predicted): Pe (×10^−6 cm s^−1) > 4.0) |  | agonistic effect in screening [5]: subtle agonistic effect; agonistic effect at higher concentrations [5]: neither an agonistic nor dose-response effect
18.9 ± 2.4 ×10⁻⁶ cm/s | 27.8 ± 0.5 µM | O=C1CC(C(=O)Nc2cccc(-c3ccc4c(c3)CCO4)c2)c2ccccc2N1 (stereo not shown) [Ligand L10, N-[3-(2,3-dihydro-1-benzofuran-5-yl)phenyl]-2-oxo-1,2,3,4-tetrahydroquinoline-4-carboxamide] | 53.9 ± 5.03 µM | CNS + (CNS + (high BBB permeation predicted): Pe (×10^−6 cm s^−1) > 4.0) | significantly reduce the signal of orexin A response | 

The remaining lines, values behind:

SMILES | Papp at 30 µM [1] | IC50 [3] | IC50 at 24 h [2, 8] | CNS Predicted Availability [1] | antagonistic screening: reduction of orexin A response signal [3] | also measured
O=C(c1cnn(-c2ncc3c(n2)-c2ccccc2CC3)c1C1CC1)N1CCN(Cc2ccccc2)CC1 [Ligand L1, 1-(1-{5H,6H-benzo[h]quinazolin-2-yl}-5-cyclopropyl-1H-pyrazole-4-carbonyl)-4-benzylpiperazine] | 10.2 ± 0.9 ×10⁻⁶ cm/s |  | 78.8 ± 6.88 µM | CNS + (CNS + (high BBB permeation predicted): Pe (×10^−6 cm s^−1) > 4.0) |  | 
O=C1CN(C(=O)CN2CCN(S(=O)(=O)c3ccc4ccccc4c3)CC2)c2ccccc2N1 [Ligand L2, 4-{2-[4-(naphthalene-2-sulfonyl)piperazin-1-yl]acetyl}-1,2,3,4-tetrahydroquinoxalin-2-one] | 31.6 ± 3.4 ×10⁻⁶ cm/s |  | 165 ± 5.36 µM | CNS + (CNS + (high BBB permeation predicted): Pe (×10^−6 cm s^−1) > 4.0) |  | 
O=C(c1cc(-c2ccco2)nc2ccccc12)N1CCN(c2ccc(=O)n(-c3ccc(F)cc3)n2)CC1 [Ligand L4, 2-(4-fluorophenyl)-6-{4-[2-(furan-2-yl)quinoline-4-carbonyl]piperazin-1-yl}-2,3-dihydropyridazin-3-one] | 18.3 ± 0.1 ×10⁻⁶ cm/s | 2.2 ± 0.47 µM | 99.8 ± 10.7 µM | CNS + (CNS + (high BBB permeation predicted): Pe (×10^−6 cm s^−1) > 4.0) | significantly reduce the signal of orexin A response | 
CC1CCCC(=O)CCC/C=C/c2cc3c(c(O)c2C(=O)O1)C(c1cc2ccccc2nc1O)CC(=O)O3 (stereo not shown) [Ligand L5, (12E)-22-hydroxy-20-(2-hydroxyquinolin-3-yl)-4-methyl-3,17-dioxatricyclo[12.8.0.0^16,21]docosa-1(14),12,15,21-tetraene-2,8,18-trione] |  |  |  | CNS + (CNS + (high BBB permeation predicted): Pe (×10^−6 cm s^−1) > 4.0) |  | IC50 at 24 h ([2]; MTT, 24 h exposure, read-out: Cytotoxicity CHO-K1 IC50 ± SEM): 59 ± 6.41 µM; Papp [4]: 12 ± 2.5 ×10⁻⁶ cm/s
O=C(Nc1ccc2n(c1=O)C[C@H]1C[C@@H]2CN(C(=O)c2ccccn2)C1)c1ccccc1 [Ligand L8, N-[(1R,9S)-6-oxo-11-(pyridine-2-carbonyl)-7,11-diazatricyclo[7.3.1.0^2,7]trideca-2,4-dien-5-yl]benzamide] |  |  |  | CNS +/− (CNS +/− (BBB permeation uncertain): Pe (×10^−6 cm s^−1) from 4.0 to 2.0) |  | IC50 at 24 h ([2]; Cytotoxicity CHO-K1 IC50 ± SEM): > 700 µM; IC50 [6]: ~700 µM; Pe ± SEM [7]: 2.0–4.0; Papp at 30 µM [4]: 4 ± 0.3 ×10⁻⁶ cm/s; BBB permeation via passive diffusion, in words [1]: uncertain permeation through the BBB
CCn1nnc2cc(C(=O)Nc3ccc4[nH]c(-c5cc(F)ccc5F)nc4c3)ccc21 [Ligand L11, N-[2-(2,5-difluorophenyl)-1H-1,3-benzodiazol-5-yl]-1-ethyl-1H-1,2,3-benzotriazole-5-carboxamide] |  |  | 28.3 ± 4.07 µM |  |  | agonistic effect in screening [5]: subtle agonistic effect; agonistic effect at higher concentrations [5]: neither an agonistic nor dose-response effect
CNC(=C[N+](=O)[O-])NCCSCc1ccc(CN(C)C)o1 [Ranitidine, reference compound] |  |  |  | CNS − (CNS − (low BBB permeation predicted): Pe (×10^−6 cm s^−1) < 2.0) |  | Papp [4]: 0.04 ± 0.02 ×10⁻⁶ cm/s
